This passage reports IC50 results from paper PMC10082777, “Pyrazole-sulfonamide scaffold featuring dual-tail strategy as apoptosis inducers in colon cancer” (Scientific Reports, 2023).

The test deals with T1, Carbonic Anhydrase IX (CA IX) (Homo sapiens, UniProt Q16790).
T1 construct: gene CA9; AA 1-459, GST tag
Briefly: CA inhibitor screening kit (BioVision K473-100), recombinant CA IX, absorbance at […] nm, kinetic mode. The class given is biochemical.

For `Nc1cc(Nc2ccc(S(=O)(=O)Nc3ccccn3)cc2)n(-c2ccccc2)n1` [compound 3, 4-((3-Amino-1-phenyl-1H-pyrazol-5-yl)amino)-N-(pyridin-2-yl) benzenesulfonamide], the IC50 turned out to be 0.336 µM.

In the case of `Nc1nn(-c2ccccc2)c(-c2ccccc2)c1C(=O)Nc1ccc(S(=O)(=O)Nc2ccccn2)cc1` [compound 11, 3-Amino-1,5-diphenyl-N-(4-(N-(pyridin-2-yl)sulfamoyl)phenyl)-1H-pyrazole-4-carboxamide], the IC50 was 0.128 µM.

Broadly, the IC50 is the concentration that gives 50% inhibition.
